Assay results: ChEMBL document CHEMBL6134789, “Asymmetric imidazole-4,5-dicarboxamide derivatives as SARS-CoV-2 main protease inhibitors: design, synthesis and biological evaluation” (RSC Med Chem, 2024)

What was measured:
[1] = target: Replicase polyprotein 1ab (Severe acute respiratory syndrome coronavirus 2) (UniProt P0DTD1); experiment: Inhibition of recombinant SARS-CoV-2 main protease at 1 uM using Dabcyl-KTSAVLQSGFRKM{Glu(Edans)} as substrate preincubated for 10 mins followed by substrate addition and measured at 60 secs interval for 30 mins by fluorogenic assay relative to control; conditions: time 40.0 min
[2] = target: T1, Replicase polyprotein 1ab (Severe acute respiratory syndrome coronavirus 2, UniProt P0DTD1); experiment: Inhibition of recombinant SARS-CoV-2 main protease using Dabcyl-KTSAVLQSGFRKM{Glu(Edans)} as substrate preincubated for 10 mins followed by substrate addition and measured at 60 secs interval for 30 mins by fluorogenic assay
[3] = system: 16HBE14o-; experiment: Cytotoxicity against human 16HBE14o- cells assessed as reduction in cell viability at 100 uM measured after 24 hrs by MTT assay; assay type: toxicity, cell-based
[4] = target: T1, Replicase polyprotein 1ab; experiment: Competitive inhibition of recombinant SARS-CoV-2 main protease using varying levels of Dabcyl-KTSAVLQSGFRKM{Glu(Edans)} as substrate by Lineweaver-Burk plot analysis

SMILES: O=C(Nc1cc(Cl)ccc1Cl)c1[nH]cnc1C(=O)N1CCOCC1
- inhibition [1]: 18%

SMILES: Cc1nc(C(=O)N2CCOCC2)c(C(=O)Nc2cc(Cl)ccc2Cl)[nH]1
- inhibition [1]: 38%
- IC50 [2]: 8.43 µM
- Activity [3]: Non-toxic

SMILES: O=C(Nc1cc(Cl)c(Cl)cc1Cl)c1[nH]cnc1C(=O)N1CCOCC1
- inhibition [1]: 16%

SMILES: Cc1nc(C(=O)N2CCOCC2)c(C(=O)Nc2ccccc2)[nH]1
- inhibition [1]: 24%
- Activity [3]: Non-toxic

SMILES: O=C(Nc1ccccc1)c1[nH]cnc1C(=O)N1CCOCC1
- inhibition [1]: 15%

SMILES: O=c1c2ccccc2[se]n1-c1ccccc1
- inhibition [1]: 100%

SMILES: O=C(Nc1ccc(Cl)c(Cl)c1)c1[nH]cnc1C(=O)N1CCOCC1
- inhibition [1]: 33%
- IC50 [2]: 44.6 µM
- Activity [3]: Non-toxic

SMILES: CC(C)c1nc(CN(C)C(=O)N[C@H](C(=O)N[C@@H](Cc2ccccc2)C[C@H](O)[C@H](Cc2ccccc2)NC(=O)OCc2cncs2)C(C)C)cs1
- inhibition [1]: 24%

SMILES: O=C(Nc1ccc(Cl)cc1)c1[nH]cnc1C(=O)N1CCOCC1
- inhibition [1]: 3%

SMILES: Cc1nc(C(=O)N2CCOCC2)c(C(=O)Nc2ccc(Cl)c(Cl)c2)[nH]1
- inhibition [1]: 33%
- IC50 [2]: 22.9 µM

SMILES: Cc1cccc(C)c1OCC(=O)N[C@@H](Cc1ccccc1)[C@@H](O)C[C@H](Cc1ccccc1)NC(=O)[C@H](C(C)C)N1CCCNC1=O
- inhibition [1]: 33%

SMILES: Cc1nc(C(=O)N2CCOCC2)c(C(=O)Nc2cc(Cl)c(Cl)cc2Cl)[nH]1
- inhibition [1]: 39%
- IC50 [2]: 13.3 µM
- Activity [3]: Non-toxic

SMILES: Cc1nc(C(=O)N2CCOCC2)c(C(=O)Nc2ccc(Cl)cc2)[nH]1
- inhibition [1]: 38%
- IC50 [2]: 4.79 µM
- Ki [4]: 15 µM
- Activity [3]: Non-toxic
